Source: ChEMBL document CHEMBL5579881, “Synthesis of the Corrected Structure Assigned to Clonorosin B, an Alkaloid Obtained from the Soil-derived Fungus Clonostachys rosea YRS-06” (J Nat Prod, 2024)
The source made the active and inactive calls. No cut-off for these calls is given here.

What was measured:
Candida albicans = assay: Antifungal activity against Candida albicans ATCC 10231 assessed as inhibition of fungal growth at 0.01 to 30 uM after 24 hrs by spectrophotometric analysis; format: functional, organism-based; settings: dose 0.01-30 µM
Staphylococcus aureus [1] = assay: Antibacterial activity against methicillin-resistant Staphylococcus aureus AUS-RBWH-MRSA-02 assessed as inhibition of microbial growth at 0.01 to 30 uM after 24 hrs by spectrophotometric analysis; format: functional, organism-based; settings: dose 0.01-30 µM
SW-620 = assay: Cytotoxicity against human SW620 cells assessed as growth inhibition at 0.01 to 30 uM incubated for 48 hrs by MTT assay; format: functional, cell-based; settings: dose 0.01-30 µM
Escherichia coli = assay: Antibacterial activity against Escherichia coli ATCC 11775 assessed as inhibition of microbial growth at 0.01 to 30 uM after 24 hrs by spectrophotometric analysis; format: functional, organism-based; settings: dose 0.01-30 µM
[2] = target: ATP-dependent translocase ABCB1 (Homo sapiens, UniProt P08183); assay: Inhibition of P-gp in human SW620/AD300 cells assessed as reduction in doxorubicin IC50 at 5 uM incubated for 48 hrs by MTT assat; format: functional, cell-based; settings: sw620/ad300, 48 h
Staphylococcus aureus [3] = assay: Antibacterial activity against Staphylococcus aureus ATCC 25923 assessed as inhibition of microbial growth at 0.01 to 30 uM after 24 hrs by spectrophotometric analysis; format: functional, organism-based; settings: dose 0.01-30 µM

Sequence of ATP-dependent translocase ABCB1 (P08183 whole entry): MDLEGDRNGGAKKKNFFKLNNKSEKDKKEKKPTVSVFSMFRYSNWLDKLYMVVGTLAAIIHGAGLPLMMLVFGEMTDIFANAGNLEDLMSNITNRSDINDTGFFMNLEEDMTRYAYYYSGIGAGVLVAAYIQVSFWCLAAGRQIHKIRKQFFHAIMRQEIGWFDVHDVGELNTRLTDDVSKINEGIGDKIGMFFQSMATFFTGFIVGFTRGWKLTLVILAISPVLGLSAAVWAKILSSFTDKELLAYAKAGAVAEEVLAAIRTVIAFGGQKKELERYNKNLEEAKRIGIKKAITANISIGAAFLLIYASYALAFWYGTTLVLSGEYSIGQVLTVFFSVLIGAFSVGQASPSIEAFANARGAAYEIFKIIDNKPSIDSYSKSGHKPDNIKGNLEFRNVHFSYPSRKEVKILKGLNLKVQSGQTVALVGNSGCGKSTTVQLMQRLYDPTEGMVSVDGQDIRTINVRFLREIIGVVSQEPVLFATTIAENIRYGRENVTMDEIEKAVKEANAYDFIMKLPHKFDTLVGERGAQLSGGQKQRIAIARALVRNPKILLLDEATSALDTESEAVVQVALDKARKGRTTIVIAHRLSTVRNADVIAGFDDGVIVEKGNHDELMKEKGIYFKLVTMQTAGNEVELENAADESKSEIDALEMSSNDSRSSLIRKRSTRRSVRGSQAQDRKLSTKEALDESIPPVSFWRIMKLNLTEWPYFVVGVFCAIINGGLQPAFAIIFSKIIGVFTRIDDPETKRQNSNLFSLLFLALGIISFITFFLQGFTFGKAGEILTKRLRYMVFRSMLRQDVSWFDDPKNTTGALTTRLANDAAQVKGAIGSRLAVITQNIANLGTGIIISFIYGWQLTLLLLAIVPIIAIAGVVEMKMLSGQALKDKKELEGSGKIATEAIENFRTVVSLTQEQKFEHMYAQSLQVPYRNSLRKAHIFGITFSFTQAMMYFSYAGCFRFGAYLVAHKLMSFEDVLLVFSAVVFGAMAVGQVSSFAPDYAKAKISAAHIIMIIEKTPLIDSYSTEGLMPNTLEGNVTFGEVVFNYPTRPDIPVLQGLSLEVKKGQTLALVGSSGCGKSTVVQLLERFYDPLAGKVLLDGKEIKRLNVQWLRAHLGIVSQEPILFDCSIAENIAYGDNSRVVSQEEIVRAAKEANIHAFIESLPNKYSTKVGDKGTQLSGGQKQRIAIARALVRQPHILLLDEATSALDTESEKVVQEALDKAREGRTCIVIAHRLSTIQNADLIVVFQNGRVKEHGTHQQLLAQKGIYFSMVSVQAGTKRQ

SMILES | inhibition (Candida albicans) | inhibition (Staphylococcus aureus [1]) | growth inhibition (GI) (SW-620) | inhibition (Escherichia coli) | inhibition (INH) [2] | inhibition (Staphylococcus aureus [3])
COc1cccc(Cn2cccc2C(=O)O)c1OC | inactive | inactive | inactive | inactive | Not Active | inactive
O=C1c2ccc3c(c2Cn2cccc21)OCO3 | inactive | inactive | inactive | inactive | Not Active | inactive
O=C1c2ccc(O)c(O)c2Cn2cccc21 | inactive | inactive | inactive | inactive | Not Active | inactive
COc1ccc2c(c1OC)Cn1cccc1C2=O | inactive | inactive | inactive | inactive | Not Active | inactive
O=C(O)c1cccn1Cc1cccc2c1OCO2 | inactive | inactive | inactive | inactive | Not Active | inactive
COC(=O)c1cccn1Cc1cccc(OC)c1OC | inactive | inactive | inactive | inactive | Not Active | inactive
COC(=O)c1cccn1Cc1cccc2c1OCO2 | inactive | inactive | inactive | inactive | Not Active | inactive
O=C(OCc1cccc2c1OCO2)c1ccc[nH]1 | inactive | inactive | inactive | inactive | Not Active | inactive
